# Several values for one entry are separate records, joined by “and”; a condition that tells them apart may be missing. Equal values may be shown once. Read-outs that look alike come from different tables or passages of the source.
# Assays:
# [1] = Thermoanalytical assay; format: physicochemical
# Experimental: Thermoanalytical assay of the product according to Example 1.
# Phendiline starts to evaporate respectively to decompose at 150° C. and 98% mass change can be observed up to 250° C.
# [2] = Resorption tests on Sartorius SM 16750 Resorption model, diffusion and resorption rate constants; format: in vitro ADME; settings: in vitro; for diffusion constant (Kd) from the intestine: resorption from the intestine
# Experimental: (§1) The in vitro tests were justified by the fact that the measurements are much more reproducible than by carrying out the tests in vivo.
# The resorption tests were performed on a Sartorius SM 16750 Resorption model, the membranes used were suitable for modelling the resorption from the stomach and from the intestine. On the basis of the test results the diffusion (Kd) and the resorption rate constant (Ki) were calculated for the test substances.
# [3] = Solubility of phendiline hydrochloride in β-cyclodextrin solutions of various concentration; format: physicochemical; settings: 37° C.; for solubility thermodynamic at 3 h: water with beta-cyclodextrin, phendiline equivalents; for β-cyclodextrin mmole / phendiline mmole: 3 hours
# Experimental: 0.22 g. (0.6 mmole) of phendiline hydrochloride is stirred at 37° C. for 3 hours in 3 ml. of water and in β-cyclodextrin solutions of various concentration by a magnetic stirrer at 150 rot./min rate. The concentration of the dissolved phendiline hydrochloride is determined by spectrophotometry and expressed in phendiline equivalents.
# [4] = Acute toxicity; settings: mouse, in vivo, dose as phendiline active ingredient, 5% Tween 80; for LD50 at 24 h: observation time 24 hours
# [5] = Solubility in words; format: physicochemical
# [6] = Determination of dissolved (MG) and resorbed (Mi) active ingredient on Sartorius SM 16751 type model; format: in vitro ADME; settings: 100. minute; segments of the gastro-intestinal system, in vitro; FIG. 1
# Source text: as §1
# The dissolution and the resorption are subsequent processes which depend greatly on each other. Under physiological conditions resorption is partially influenced by the pH relations at the place of the resorption and partially by the time spent by the pharmaceutical at the place of the resorption.
# The average spent time in each segment of the gastro-intestinal system and the pH values are as follows:
# The determination of the dissolved (MG) and the resorbed (Mi) active ingredient was performed on a Sartorius SM 16751 type Lose model [H. Stricker: Pharm. Ind. 33, 157 (1971); H. Sticker: Drugs in Germany 14, 93 (1971)].
# The amount of the resorbed phendiline, phendiline-CD-complex as well as phendiline hydrochloride and phendiline-hydrochloride-CD-complex from the gastro-intestinal tract is shown in FIG. 2 where F stands for the resorbed amount of phendiline, F-CD stands for the resorbed amount of phendiline-cyclodextrine-complex, FHCl stands for the resorbed amount of phendiline-hydrochloride and FHCl-CD stands for the resorbed amount of phendiline-hydrochloride-cyclodextrine-complex.
# [7] = β-cyclodextrin 15 mg./ml. (13.2 mmole/l.)
# [8] = β-cyclodextrin 20 mg./ml. (17.6 mmole/l.)
# [9] = β-cyclodextrin 25 mg./ml. (22.0 mmole/l.)
# [10] = β-cyclodextrin 30 mg./ml. (26.4 mmole/l.)
compound,measurement,setting,value
β-cyclodextrin,temperature of melting with decomposition,[1]; thermoanalytical assay,300 °C
"CC(NCCC(c1ccccc1)c1ccccc1)c1ccccc1.Cl (stereo not drawn) [phendiline hydrochloride, N-(1-phenylethyl)-3,3-diphenylpropylamine hydrochloride]",resorption rate constant (Ki) from the intestine,[2],0.0049 min⁻¹
same,diffusion constant (Kd) from the intestine,[2],6.7 × 10^-4 cm^2 min^-1
same,solubility thermodynamic at 3 h,[3]; [7],4390 µg/mL and 13900 µM
same,solubility thermodynamic at 3 h,[3]; [8],5950 µg/mL and 18600 µM
same,solubility thermodynamic at 3 h,[3]; [9],6940 µg/mL and 22000 µM
same,solubility thermodynamic at 3 h,[3]; [10],7510 µg/mL and 23800 µM
same,β-cyclodextrin mmole / phendiline mmole,[3]; [7],0.95
same,β-cyclodextrin mmole / phendiline mmole,[3]; [8],0.95
same,β-cyclodextrin mmole / phendiline mmole,[3]; [9],1.00
same,β-cyclodextrin mmole / phendiline mmole,[3]; [10],1.10
same,LD50 at 1 h,"[4]; ip, intraperitoneal, observation time 1 hour",81.1 mg/kg
same,LD50 at 24 h,"[4]; po, per os",522 mg/kg
same,solubility in water,[5],extremely poor
Cyclodextrin,decomposition temperature,[1]; thermoanalytical assay,270 °C
"CC(NCCC(c1ccccc1)c1ccccc1)c1ccccc1 (stereo not drawn) [phendiline, N-(1-phenylethyl)-3,3-diphenylpropylamine]",resorption rate constant (Ki) from the intestine,[2],0.0051 min⁻¹
same,diffusion constant (Kd) from the intestine,[2],6.9 × 10^-4 cm^2 min^-1
same,LD50 at 24 h,"[4]; ip, intraperitoneal",47.5 mg/kg
same,LD50 at 72 h,"[4]; po, per os, observation time 72 hours",512 mg/kg
same,solubility in water,[5],very poor
same,solubility in water,[5]; listed as Phendiline,not soluble in water
same,amount dissolved,[6],75 mg
same,temperature at which it starts to evaporate respectively to decompose,[1]; thermoanalytical assay,150 °C
same,mass change,[1]; up to 250° C.,98%
